Legend:
PDX CR0133 = experiment: karenitecin treatment of PDX model; type: in vivo; design: key to Response: responder: responded to karenitecin treatment (AUC<0.5 and TGI>0.8); non_responder: did not respond to karenitecin treatment (AUC>0.5 and TGI<0.6); settings: karenitecin treatment for two weeks
Protocol: (§1) A cohort of 48 PDX models in 8 cancers were used in this study. Those models were subject to karenitecin treatment for two weeks. Both tumor growth inhibition (TGI) and median AUC (area under curve) ratio, a newly developed metric to evaluate drug efficacy, were calculated (Table 1). Those models can be divided into two categories according to TGI and median AUC ratio.

PDX CR1451 = experiment: karenitecin treatment of PDX model; type: in vivo; design: key to Response: responder: responded to karenitecin treatment (AUC<0.5 and TGI>0.8); non_responder: did not respond to karenitecin treatment (AUC>0.5 and TGI<0.6); settings: karenitecin treatment for two weeks
Protocol: as §1

PDX CR2528 = experiment: karenitecin treatment of PDX model; type: in vivo; design: key to Response: responder: responded to karenitecin treatment (AUC<0.5 and TGI>0.8); non_responder: did not respond to karenitecin treatment (AUC>0.5 and TGI<0.6); settings: karenitecin treatment for two weeks
Protocol: as §1

PDX CR3310 = experiment: karenitecin treatment of PDX model; type: in vivo; design: key to Response: responder: responded to karenitecin treatment (AUC<0.5 and TGI>0.8); non_responder: did not respond to karenitecin treatment (AUC>0.5 and TGI<0.6); settings: karenitecin treatment for two weeks
Protocol: as §1

PDX CR6249 = experiment: karenitecin treatment of PDX model; type: in vivo; design: key to Response: responder: responded to karenitecin treatment (AUC<0.5 and TGI>0.8); non_responder: did not respond to karenitecin treatment (AUC>0.5 and TGI<0.6); settings: karenitecin treatment for two weeks
Protocol: as §1

PDX GL1208 = experiment: karenitecin treatment of PDX model; type: in vivo; design: key to Response: responder: responded to karenitecin treatment (AUC<0.5 and TGI>0.8); non_responder: did not respond to karenitecin treatment (AUC>0.5 and TGI<0.6); settings: karenitecin treatment for two weeks
Protocol: as §1

PDX LU1144 = experiment: karenitecin treatment of PDX model; type: in vivo; design: key to Response: responder: responded to karenitecin treatment (AUC<0.5 and TGI>0.8); non_responder: did not respond to karenitecin treatment (AUC>0.5 and TGI<0.6); settings: karenitecin treatment for two weeks
Protocol: as §1

PDX LU1271 = experiment: karenitecin treatment of PDX model; type: in vivo; design: key to Response: responder: responded to karenitecin treatment (AUC<0.5 and TGI>0.8); non_responder: did not respond to karenitecin treatment (AUC>0.5 and TGI<0.6); settings: karenitecin treatment for two weeks
Protocol: as §1

PDX LU1901 = experiment: karenitecin treatment of PDX model; type: in vivo; design: key to Response: responder: responded to karenitecin treatment (AUC<0.5 and TGI>0.8); non_responder: did not respond to karenitecin treatment (AUC>0.5 and TGI<0.6); settings: karenitecin treatment for two weeks
Protocol: as §1

PDX LU2071 = experiment: karenitecin treatment of PDX model; type: in vivo; design: key to Response: responder: responded to karenitecin treatment (AUC<0.5 and TGI>0.8); non_responder: did not respond to karenitecin treatment (AUC>0.5 and TGI<0.6); settings: karenitecin treatment for two weeks
Protocol: as §1

PDX LU6429 = experiment: karenitecin treatment of PDX model; type: in vivo; design: key to Response: responder: responded to karenitecin treatment (AUC<0.5 and TGI>0.8); non_responder: did not respond to karenitecin treatment (AUC>0.5 and TGI<0.6); settings: karenitecin treatment for two weeks
Protocol: as §1

PDX OV0273 = experiment: karenitecin treatment of PDX model; type: in vivo; design: key to Response: responder: responded to karenitecin treatment (AUC<0.5 and TGI>0.8); non_responder: did not respond to karenitecin treatment (AUC>0.5 and TGI<0.6); settings: karenitecin treatment for two weeks
Protocol: as §1

PDX OV0276 = experiment: karenitecin treatment of PDX model; type: in vivo; design: key to Response: responder: responded to karenitecin treatment (AUC<0.5 and TGI>0.8); non_responder: did not respond to karenitecin treatment (AUC>0.5 and TGI<0.6); settings: karenitecin treatment for two weeks
Protocol: as §1

PDX PA0527 = experiment: karenitecin treatment of PDX model; type: in vivo; design: key to Response: responder: responded to karenitecin treatment (AUC<0.5 and TGI>0.8); non_responder: did not respond to karenitecin treatment (AUC>0.5 and TGI<0.6); settings: karenitecin treatment for two weeks
Protocol: as §1

PDX PA3029 = experiment: karenitecin treatment of PDX model; type: in vivo; design: key to Response: responder: responded to karenitecin treatment (AUC<0.5 and TGI>0.8); non_responder: did not respond to karenitecin treatment (AUC>0.5 and TGI<0.6); settings: karenitecin treatment for two weeks
Protocol: as §1

PDX PA3065 = experiment: karenitecin treatment of PDX model; type: in vivo; design: key to Response: responder: responded to karenitecin treatment (AUC<0.5 and TGI>0.8); non_responder: did not respond to karenitecin treatment (AUC>0.5 and TGI<0.6); settings: karenitecin treatment for two weeks
Protocol: as §1

[1] = system: 48 PDX models in 8 cancers; experiment: karenitecin treatment of a cohort of 48 PDX models; type: in vivo; settings: number of the 48 PDX models in 8 cancers; treatment for two weeks
Protocol: as §1

[2] = system: extensively pretreated ovarian cancer; settings: previous clinical trial (Kavanagh 2008); cited from earlier work
[3] = prior studies, cited from earlier work

For `CC[C@@]1(O)C(=O)OCc2c1cc1n(c2=O)Cc2c-1nc1ccccc1c2CC[Si](C)(C)C` [karenitecin], the “Median AUC ratio” value (PDX CR0133) was 0.275, the Response (PDX CR0133) was “responder” and the TGI (PDX CR0133) was 0.905. The “Median AUC ratio” value (PDX CR1451) was 0.069, the Response (PDX CR1451) was “responder” and the TGI (PDX CR1451) was 1.173. The “Median AUC ratio” value (PDX CR2528) was 1.014, the Response (PDX CR2528) was “non_responder” and the TGI (PDX CR2528) was 0.519. The “Median AUC ratio” value (PDX CR3310) was −0.926, the Response (PDX CR3310) was “responder” and the TGI (PDX CR3310) was 1.727. For the same compound, the “Median AUC ratio” value (PDX CR6249) was −0.712, the Response (PDX CR6249) was “responder” and the TGI (PDX CR6249) was 1.253. The “Median AUC ratio” value (PDX GL1208) was 0.811, the Response (PDX GL1208) was “non_responder” and the TGI (PDX GL1208) was 0.135. For the same compound, the “Median AUC ratio” value (PDX LU1144) was 1.056, the Response (PDX LU1144) was “non_responder” and the TGI (PDX LU1144) was 0.378. For the same compound, the “Median AUC ratio” value (PDX LU1271) was −0.007, the Response (PDX LU1271) was “responder” and the TGI (PDX LU1271) was 1.081. The “Median AUC ratio” value (PDX LU1901) was −0.295, the Response (PDX LU1901) was “responder” and the TGI (PDX LU1901) was 1.077. For the same compound, the “Median AUC ratio” value (PDX LU2071) was 0.037, the Response (PDX LU2071) was “responder” and the TGI (PDX LU2071) was 1.099. For the same compound, the “Median AUC ratio” value (PDX LU6429) was 1.106, the Response (PDX LU6429) was “non_responder” and the TGI (PDX LU6429) was 0.241. The “Median AUC ratio” value (PDX OV0273) was −0.092, the Response (PDX OV0273) was “responder” and the TGI (PDX OV0273) was 1.052. The “Median AUC ratio” value (PDX OV0276) was 0.314, the Response (PDX OV0276) was “responder” and the TGI (PDX OV0276) was 1.103. For the same compound, the “Median AUC ratio” value (PDX PA0527) was 0.316, the Response (PDX PA0527) was “responder” and the TGI (PDX PA0527) was 0.996. For the same compound, the “Median AUC ratio” value (PDX PA3029) was 0.768, the Response (PDX PA3029) was “non_responder” and the TGI (PDX PA3029) was 0.423. The “Median AUC ratio” value (PDX PA3065) was 0.309, the Response (PDX PA3065) was “responder” and the TGI (PDX PA3065) was 1.019. The “models did not respond to karenitecin treatment (AUC>0.5 and TGI<0.6)” value [1] was 17, the “models responded to karenitecin treatment (AUC<0.5 and TGI>0.8)” value [1] was “Thirty-one” and the response rate [2] was “low”. For the same compound, the “incidence of severe diarrhea” value ([3]; compared with irinotecan) was “lower” and the “incidence and severity of anemia, neutropenia and thrombocytopenia” value ([3]; compared with topotecan) was “lower”.

From US11339447B2, “System and method for determining Kareniticin sensitivity on cancer” (CROWN BIOSCIENCE, INC. (TAICANG), priority 2017, dated 2022)
